Data reported in patent US20150158956A1, “MULTIVALENT ANTIVIRAL COMPOSITIONS, METHODS OF MAKING, AND USES THEREOF” (The Charles Stark Draper Laboratory, Inc., priority 2013, published 2015).

Columns and labels:
[1] = tested on: respiratory syncytial virus (RSV); assay: RSV plaque (PFU) assay, sample added to Vero cells simultaneously with RSV (Example 6); format: cell-based
Description: The ability of purified sulfated octasaccharide, in solution, to block respiratory syncytial virus (RSV) infection of Vero cells was examined. The blocking ability of purified sulfated octasaccharide was compared to heparin sodium.
Purified sulfated octasaccharide was prepared according to the method of Example 1. Vero cells were seeded into 24-well plates and incubated at 37° C. for 24 hours to form monolayers. Samples were diluted to the desired concentration in sterile DMEM in a final volume of 225 μl. Full-length heparin sodium (the starting material) or purified HSocta was added to Vero cells simultaneously with RSV that was diluted to 300 PFU/mL then incubated at 37° C. for 30 min. Vero cells were washed with PBS and samples were incubated at 37° C. for 1 hour on Vero cells and then washed with PBS and incubated with DMEM containing 10% FBS and incubated at 37° C. for 72 h. Cells were fixed and stained with anti-glycoprotein F and anti-glycoprotein G antibodies (MAB858-2 and MAB8262F Millipore, Billerica, Mass.). Plaques were visualized with anti-mouse horseradish peroxidase-conjugated secondary antibody (BD Biosciences, San Jose, Calif.) and developed with peroxidase substrate kit (Vector Laboratories, Burlingame, Calif.). Viral plaques in the Vero monolayer were counted and the PFU/mL was determined.

RSV strain A2 = assay: RSV plaque assay on Vero cell monolayers, sample pre-mixed with RSV strain A2 (Example 7); format: cell-based, respiratory syncytial virus; details: in solution; Vero cells; 200 PFU RSV strain A2, 30 min at 37° C. pre-mix; read-out: concentration achieving a 50% reduction in RSV infectivity
Description: The ability of liposomes to block RSV infection of Vero cells was examined. The blocking ability of liposomes was compared to purified sulfated octasaccharide, in solution, and a control, i.e., a liposome without sulfated octasaccharides. Liposomes were prepared using the method described in Example 3. […] Purified sulfated octasaccharide as described in Example 1, in solution or incorporated into liposomes, at the concentrations indicated were assessed using a plaque assay. Confluent Vero cell monolayers were formed by adding 1×10^6 Vero cells to wells of a 12-well plate then incubating the cells in 1 ml Dulbecco's Modified Eagle Medium (DMEM) with 4 mM glutamine and 10% fetal bovine serum as growth medium. The medium was removed from the cells. Sulfated octasaccharide, liposomes, or buffer at the concentrations indicated (see FIG. 5) were mixed with 200 PFU RSV strain A2 in 150 mM phosphate buffered saline for 30 min at 37° C. and the mixture was added to the monolayer surface. After one hour, the mixtures were removed, and the cells were washed and overlaid with 1 ml plaquing medium (DMEM with 4 mM glutamine, 2% FBS, and 0.4% agarose). After 5 to 7 days incubation at 37° C., the number of RSV plaques was counted. Liposome treated virus was compared to untreated virus, which represented 100% infectivity.

GlcUA(2S)-GlcNS(6S)-Ido(2S)-GlcNS(6S)-Ido(2S)-GlcNS(6S)-Ido(2S)-GlcNS(6S) [purified sulfated octasaccharide]
blocking PFU formation ([1]; at 1 μg/ml or higher, RSV, Vero cells (results text says MDCK cells)): roughly 50% | anti-RSV properties, ability to block infection of cells ([1]; in solution, results text says MDCK cells): strong anti-RSV properties | IC50 (RSV strain A2): ~500 µM
